Here are results for 27 compounds from patent US20160130278A1 (TAISHO PHARMACEUTICAL CO., LTD, priority 2013, published 2016).

Structures are written as SMILES.

This assay addresses T1, human type 1 glycine transporter (GlyT1) (Homo sapiens, UniProt P48067).
T1 construct: T98G cells (glioma cells) expressing human type 1 glycine transporter (GlyT1) were used
T1 sequence (P48067 1-706): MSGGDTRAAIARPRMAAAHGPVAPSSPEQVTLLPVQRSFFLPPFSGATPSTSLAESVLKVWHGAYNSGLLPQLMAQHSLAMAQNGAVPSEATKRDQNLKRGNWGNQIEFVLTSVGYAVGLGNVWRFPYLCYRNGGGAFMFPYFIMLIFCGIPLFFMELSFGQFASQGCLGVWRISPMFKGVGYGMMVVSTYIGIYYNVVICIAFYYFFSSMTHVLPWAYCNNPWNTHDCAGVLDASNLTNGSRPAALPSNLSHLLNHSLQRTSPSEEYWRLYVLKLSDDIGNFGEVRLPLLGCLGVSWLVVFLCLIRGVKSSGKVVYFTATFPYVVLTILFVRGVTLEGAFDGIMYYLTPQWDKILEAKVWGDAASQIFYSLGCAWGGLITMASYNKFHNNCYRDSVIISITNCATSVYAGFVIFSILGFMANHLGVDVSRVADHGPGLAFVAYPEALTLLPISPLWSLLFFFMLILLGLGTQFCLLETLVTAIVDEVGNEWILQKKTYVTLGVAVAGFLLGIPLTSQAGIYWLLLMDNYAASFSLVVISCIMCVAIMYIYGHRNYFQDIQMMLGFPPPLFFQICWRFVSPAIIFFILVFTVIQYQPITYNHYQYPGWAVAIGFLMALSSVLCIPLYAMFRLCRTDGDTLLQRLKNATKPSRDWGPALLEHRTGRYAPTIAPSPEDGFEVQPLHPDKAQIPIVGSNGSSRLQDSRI
The assay is described as follows: Glycine uptake inhibition experiment ([3H]glycine uptake). Format: cell-based. Conditions: GlyT1. A digest of the protocol: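 T98G glioma cells expressing human GlyT1 were pretreated 10 min with compound in HEPES buffer pH 7.4 (0.2% BSA), then incubated with compound plus 250 nM final [3H]glycine for 15 min at room temperature. Intracellular radioactivity was counted after NaOH lysis; 10 μM ALX5407 defined non-specific uptake. IC50 came from 10^−9–10^−5 M curves.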
Broadly, the IC50 is the point on the concentration scale where inhibition reaches its midpoint. Lower therefore signals greater potency in that assay. As for `O=C(N[C@@H](c1cccc(Br)c1)[C@]1(O)CC[C@@H](F)CC1)c1nccc(C(F)(F)F)c1Cl` [Compound 110, N-[(S)-(3-bromophenyl)(cis-4-fluoro-1-hydroxycyclohexyl)methyl]-3-chloro-4-(trifluoromethyl)pyridine-2-carboxamide], the IC50 was determined as 95 nM.
For `O=C(NC(c1cc(Cl)cc(Cl)c1)C1(O)CCCC1)c1nccc(C(F)(F)F)c1Cl` (stereo not drawn) [Compound 111, 3-chloro-N-[(3,5-dichlorophenyl)(1-hydroxycyclopentyl)methyl]-4-(trifluoromethyl)pyridine-2-carboxamide], the half-inhibitory concentration (IC50) worked out at 220 nM.
Take `CN(C)Cc1cccc(C(NC(=O)c2nccc(C(F)(F)F)c2Cl)C2(O)CCCC2)c1` (stereo not drawn) [Compound 112, 3-chloro-N-[{3-[(dimethylamino)methyl]phenyl}(1-hydroxycyclopentyl)methyl]-4-(trifluoromethyl)pyridine-2-carboxamide]: the IC50 stood at 1800 nM.
Under `CCn1cc(-c2cccc(C(NC(=O)c3cccc(C(F)(F)F)c3Cl)C3(O)CCC(F)(F)CC3)c2)cn1` (stereo not drawn) [Compound 118, 2-chloro-N-{(4,4-difluoro-1-hydroxycyclohexyl)[3-(1-ethyl-1H-pyraozl-4-yl)phenyl]methyl}-3-(trifluoromethyl)benzamide] stands 260 nM.
Compound `CCn1cc(-c2cccc(C(NC(=O)c3cccc(Cl)c3Cl)C3(O)CCC(F)(F)CC3)c2)cn1` (stereo not drawn) [Compound 119, 2,3-dichloro-N-{(4,4-difluoro-1-hydroxycyclohexyl)[3-(1-ethyl-1H-pyrazol-4-yl)phenyl]methyl}benzamide] registered an IC50 of 470 nM.
Take `CCn1cc(-c2cccc(C(NC(=O)c3c(C)cccc3C)C3(O)CCC(F)(F)CC3)c2)cn1` (stereo not drawn) [Compound 120, N{(4,4-difluoro-1-hydroxycyclohexyl)[3-(1-ethyl-1H-pyrazol-4-yl)phenyl]methyl}-2,6-dimethylbenzamide]: inhibition was half-maximal at 740 nM (IC50).
To `CCn1cc(-c2cccc(C(NC(=O)c3c(Cl)ccc(C(F)(F)F)c3Cl)C3(O)CCC(F)(F)CC3)c2)cn1` (stereo not drawn) [Compound 123, 2,6-dichloro-N-{(4,4-difluoro-1-hydroxycyclohexyl)[3-(1-ethyl-1H-pyrazol-4-yl)phenyl]methyl}-3-(trifluoromethyl)benzamide] belongs 280 nM; to `CCn1cc(-c2cccc(C(NC(=O)c3cccc(Cl)c3C)C3(O)CCC(F)(F)CC3)c2)cn1` (stereo not drawn) [Compound 124, 3-chloro-N-{(4,4-difluoro-1-hydroxycyclohexyl)[3-(1-ethyl-1H-pyrazol-4-yl)phenyl]methyl}-2-methylbenzamide], 310 nM; to `CCn1cc(-c2cccc(C(NC(=O)c3cccc(C(F)(F)F)c3C)C3(O)CCC(F)(F)CC3)c2)cn1` (stereo not drawn) [Compound 125, N-{(4,4-difluoro-1-hydroxycyclohexyl)[3-(1-ethyl-1H-pyrazol-4-yl)phenyl]methyl}-2-methyl-3-(trifluoromethyl)benzamide], 350 nM.
The compound `CCn1cc(-c2cccc(C(NC(=O)c3cccc(C)c3Cl)C3(O)CCC(F)(F)CC3)c2)cn1` (stereo not drawn) [Compound 126, 2-chloro-N-{(4,4-difluoro-1-hydroxycyclohexyl)[3-(1-ethyl-1H-pyrazol-4-yl)phenyl]methyl}-3-methylbenzamide] showed an IC50 of 720 nM.
To `CCn1cc(-c2cccc(C(NC(=O)c3cc(Cl)ccc3Cl)C3(O)CCC(F)(F)CC3)c2)cn1` (stereo not drawn) [Compound 127, 2,5-dichloro-N-{(4,4-difluoro-1-hydroxycyclohexyl)[3-(1-ethyl-1H-pyrazol-4-yl)phenyl]methyl}benzamide] belongs 660 nM; to `O=C(NC(c1cccc(Cl)c1)C1(O)CCC(O)C1)c1nccc(C(F)(F)F)c1Cl` (stereo not drawn) [Compound 128, 3-chloro-N-[(3-chlorophenyl)(1,3-dihydroxycyclopentyl)methyl]-4-(trifluoromethyl)pyridine-2-carboxamide], 1100 nM; to `CC(C)n1cc(-c2cccc(C(NC(=O)c3nccc(C(F)(F)F)c3Cl)C3(O)CCC(F)(F)CC3)c2)cn1` (stereo not drawn) [Compound 129, 3-chloro-N-[(4,4-difluoro-1-hydroxycyclohexyl){3-[1-(propan-2-yl)-1H-pyrazol-4-yl]phenyl}methyl]-4-(trifluoromethyl)pyridine-2-carboxamide], 99 nM.
The compound `O=C1CCC(O)(C(NC(=O)c2nccc(C(F)(F)F)c2Cl)c2cccc(Cl)c2)C1` (stereo not drawn) [Compound 130, 3-chloro-N-[(3-chlorophenyl)(1-hydroxy-3-oxocyclopentyl)methyl]-4-(trifluoromethyl)pyridine-2-carboxamide] registered an IC50 of 1100 nM.
Consider `O=C(NC(c1cccc(Cl)c1Cl)C1(O)CCC(F)(F)CC1)c1nccc(C(F)(F)F)c1Cl` (stereo not drawn) [Compound 131, 3-chloro-N-[(2,3-dichlorophenyl)(4,4-difluoro-1-hydroxycyclohexyl)methyl]-4-(trifluoromethyl)pyridine-2-carboxamide], for which the IC50 is 160 nM.
Under `O=C(NC(c1cccc(-c2cnn(CC(F)(F)F)c2)c1)C1(O)CCC(F)(F)CC1)c1nccc(C(F)(F)F)c1Cl` (stereo not drawn) [Compound 132, 3-chloro-N-[(4,4-difluoro-1-hydroxycyclohexyl){3-[1-(2,2,2-trifluoroethyl)-1H-pyrazol-4-yl]phenyl}methyl]-4-(trifluoromethyl)pyridine-2-carboxamide] stands 130 nM; under `CCn1cc(-c2cccc(C(NC(=O)c3cccc4ccccc34)C3(O)CCC(F)(F)CC3)c2)cn1` (stereo not drawn) [Compound 138, N-{(4,4-difluoro-1-hydroxycyclohexyl)[3-(1-ethyl-1H-pyrazol-4-yl)phenyl]methyl}naphthalene-1-carboxamide], 840 nM.
For the compound `CCn1cc(-c2cccc(C(NC(=O)c3nccc4ccccc34)C3(O)CCC(F)(F)CC3)c2)cn1` (stereo not drawn) [Compound 139, N-{(4,4-difluoro-1-hydroxycyclohexyl)[3-(1-ethyl-1H-pyrazol-4-yl)phenyl]methyl}isoquinoline-1-carboxamide], the IC50 was 430 nM.
For the compound `CCn1cc(-c2cccc(C(NC(=O)c3ccc(C(F)(F)F)nc3C)C3(O)CCC(F)(F)CC3)c2)cn1` (stereo not drawn) [Compound 140, N-{(4,4-difluoro-1-hydroxycyclohexyl)[3-(1-ethyl-1H-pyrazol-4-yl)phenyl]methyl}-2-methyl-6-(trifluoromethyl)pyridine-3-carboxamide], the IC50 turned out to be 3300 nM.
On to `CCn1cc(-c2cccc(C(NC(=O)c3nccnc3Cl)C3(O)CCC(F)(F)CC3)c2)cn1` (stereo not drawn) [Compound 141, 3-chloro-N-{(4,4-difluoro-1-hydroxycyclohexyl)[3-(1-ethyl-1H-pyrazol-4-yl)phenyl]methyl}pyradine-2-carboxamide], for which the IC50 was found to be 3100 nM.
In turn, `O=C(NC(c1cccc(Br)c1)C1(O)CC=CCC1)c1nccc(C(F)(F)F)c1Cl` (stereo not drawn) [Compound 142, N-[(3-bromophenyl)(1-hydroxycyclohex-3-en-1-yl)methyl]-3-chloro-4-(trifluoromethyl)pyridine-2-carboxamide] yielded an IC50 of 410 nM.
As for `O=C(NC(c1cccc(-c2ccccn2)c1)C1(O)CCC(F)(F)CC1)c1nccc(C(F)(F)F)c1Cl` (stereo not drawn) [Compound 143, 3-chloro-N-{(4,4-difluoro-1-hydroxycyclohexyl)[3-(pyridin-2-yl)phenyl]methyl}-4-(trifluoromethyl)pyridine-2-carboxamide], half-maximal inhibition (IC50) required 210 nM.
`O=C(NC(c1cccc(-c2cccnc2)c1)C1(O)CCC(F)(F)CC1)c1nccc(C(F)(F)F)c1Cl` (stereo not drawn) [Compound 146, 3-chloro-N-{(4,4-difluoro-1-hydroxycyclohexyl)[3-(pyridin-3-yl)phenyl]methyl}-4-(trifluoromethyl)pyridine-2-carboxamide] came in with an IC50 of 140 nM.
Under `O=C(NC(c1cc(Cl)ccc1Cl)C1(O)CCC(F)(F)CC1)c1nccc(C(F)(F)F)c1Cl` (stereo not drawn) [Compound 148, 3-chloro-N-[(2,5-dichlorophenyl)(4,4-difluoro-1-hydroxycyclohexyl)methyl]-4-(trifluoromethyl)pyridine-2-carboxamide] stands 260 nM.
Under `O=C(NC(c1cccc(Cl)c1)[C@]1(O)CC[C@@H](F)CC1)c1nccc(C(F)(F)F)c1Cl` (stereo partly drawn) [Compound 153, 3-chloro-N-[(3-chlorophenyl)(cis-4-fluoro-1-hydroxycyclohexyl)methyl]-4-(trifluoromethyl)pyridine-2-carboxamide] stands 98 nM; under `CCn1cc(-c2cccc(C(NC(=O)c3ccnc(C(F)(F)F)c3Cl)C3(O)CCC(F)(F)CC3)c2)cn1` (stereo not drawn) [Compound 157, 3-chloro-N-[(4,4-difluoro-1-hydroxycyclohexyl)[3-(1-ethyl-1H-pyrazol-4-yl)phenyl]methyl]-2-(trifluoromethyl)pyridine-4-carboxamide], 160 nM; under `O=C(NC(c1ccccc1)[C@]1(O)CC[C@@H](F)CC1)c1nccc(C(F)(F)F)c1Cl` (stereo partly drawn) [Compound 158, 3-chloro-N-[(cis-4-fluoro-1-hydroxycyclohexyl)(phenyl)methyl]-4-(trifluoromethyl)pyridine-2-carboxamide], 350 nM.
